Source: patent publication US20220282271A1, “HERBICIDE RESISTANT PLANTS AND METHODS OF MAKING AND USING” (OFFICE OF INNOVATION ADVANCEMENT AND COMMERCIALIZATION, priority 2019, published 2022)

What was measured:
Albizia julibrissin = assay: Weed control screen: silktree; type: in vivo; details: 1.0 lb ai/a, applied approximately 3 weeks after emergence, relative to non-treated
Method: (§1) Herbicides were applied at a spray volume of 280 L/ha with no adjuvant added to any herbicide mixture. Weed control was rated on a 0 to 100 percent phytoxicity scale with 0 being no plant injury/phytotoxicity and 100 being complete plant dessication. Twenty-one weeds were evaluated for response to herbicides (Table 3). The weeds selected were a mixture of weeds common in agronomic and horticultural crops. Herbicide was applied to all species approximately 3 weeks after emergence. Plant phytotoxicity rated as percent control relative to the non-treated.

[1] = test system: PPO1 from S E. indica biotype (Ala212) expressed in hemG mutant E. coli strain SASX38; assay: hemG mutant E. coli SASX38 complementation assay, S PPO1; type: cell-based, Eleusine indica; details: LB medium; 0, 10, 50, 100, 200 μM tested; 37° C., 20 h
Description: Two putative PPO-inhibitor resistant (R-) and susceptible (S-) plasmids were created to test the role of the chloroplast-targeted PPO1 in the E. indica biotypes. The PPO1 from R1, R2 and S E. indica biotypes were cloned into the pBAD-TOPO expression vector using the pBAD TOPO™ TA Expression kit (Invitrogen, Carlsbad, Calif.), respectively. The PPO1 product was amplified using the same PCR primers and PCR reaction system as cDNA sequencing, so that the PPO1 translation began at the ATG start codon. Three different pBAD-TOPO PPO1 constructs were created and sequenced to confirm they were identical with the PPO1 gene from R1, R2 and S E. indica biotypes and there were no other nucleotide polymorphisms in the cloning experiment. R- and S-PPO1 plasmids were used to transform a hemG mutant Escherichia coli strain SASX38 by electroporation. The SASX38 mutant strain was grown on LB medium supplemented with 10 μg/mL hematin. Expression of the PPO1 in the transformed colonies of the SASX38 mutant strain were induced on LB medium with 2% L-arabinose. […]

Jaquemontia tamnifolia = assay: Weed control screen: smallflower morningglory; type: in vivo; details: 1.0 lb ai/a, applied approximately 3 weeks after emergence, relative to non-treated
Method: as §1

Ipomoea lacunosa = assay: Weed control screen: pitted morningglory; type: in vivo; details: 1.0 lb ai/a, applied approximately 3 weeks after emergence, relative to non-treated
Method: as §1

Sorghum halapense = assay: Weed control screen: johnsongrass; type: in vivo; details: 1.0 lb ai/a, applied approximately 3 weeks after emergence, relative to non-treated
Method: as §1

Murdannia nudiflora = assay: Weed control screen: doveweed; type: in vivo; details: 1.0 lb ai/a, applied approximately 3 weeks after emergence, relative to non-treated
Method: as §1

Ipomoea coccinea = assay: Weed control screen: red morningglory; type: in vivo; details: 1.0 lb ai/a, applied approximately 3 weeks after emergence, relative to non-treated
Method: as §1

Kyllinga squamulata = assay: Weed control screen: cock's comb kyllinga; type: in vivo; details: 1.0 lb ai/a, applied approximately 3 weeks after emergence, relative to non-treated
Method: as §1

Amaranthus hybridus = assay: Weed control screen: smooth pigweed; type: in vivo; details: 1.0 lb ai/a, applied approximately 3 weeks after emergence, relative to non-treated
Method: as §1

CC(C)Oc1cc(-n2nc(C(C)(C)C)oc2=O)c(Cl)cc1Cl [Oxadiazon, oxadiazon]
Percent control (0 to 100) (Albizia julibrissin): 50%
Concentration in medium that inhibited the growth of the transformed E. coli [1]: 50 µM
Percent control (0 to 100) (Jaquemontia tamnifolia): 90%
Percent control (0 to 100) (Ipomoea lacunosa): 100%
Percent control (0 to 100) (Sorghum halapense): 100%
Percent control (0 to 100) (Murdannia nudiflora): 0%
Percent control (0 to 100) (Ipomoea coccinea): 100%
Percent control (0 to 100) (Kyllinga squamulata): 75%
Percent control (0 to 100) (Amaranthus hybridus): 100%
